These are literature values, as cited in patent publication US20240156825A1, “USE OF SELECTIVE VEGFR2 AND FGFR1 INHIBITORS” (Fountain Therapeutics Inc., priority 2022, published 2024).

The structures appear in SMILES notation. Read-outs that look alike come from different tables or passages of the source.

The target of one data set is VEGFR2 (Homo sapiens, UniProt P35968). As to conditions: reported IC50 to VEGFR2, read-out: VEGFR2 IC50_μM, cited from earlier work.
The test system of a further data set is any gene target. The conditions noted are these: next lowest IC50 value to any gene target, read-out: Min IC50_μM, cited from earlier work.
The mark [1] stands for this setting: Table 3, selective inhibitors of VEGFR2.

Chain of VEGFR2 (P35968 20-1356, species assumed): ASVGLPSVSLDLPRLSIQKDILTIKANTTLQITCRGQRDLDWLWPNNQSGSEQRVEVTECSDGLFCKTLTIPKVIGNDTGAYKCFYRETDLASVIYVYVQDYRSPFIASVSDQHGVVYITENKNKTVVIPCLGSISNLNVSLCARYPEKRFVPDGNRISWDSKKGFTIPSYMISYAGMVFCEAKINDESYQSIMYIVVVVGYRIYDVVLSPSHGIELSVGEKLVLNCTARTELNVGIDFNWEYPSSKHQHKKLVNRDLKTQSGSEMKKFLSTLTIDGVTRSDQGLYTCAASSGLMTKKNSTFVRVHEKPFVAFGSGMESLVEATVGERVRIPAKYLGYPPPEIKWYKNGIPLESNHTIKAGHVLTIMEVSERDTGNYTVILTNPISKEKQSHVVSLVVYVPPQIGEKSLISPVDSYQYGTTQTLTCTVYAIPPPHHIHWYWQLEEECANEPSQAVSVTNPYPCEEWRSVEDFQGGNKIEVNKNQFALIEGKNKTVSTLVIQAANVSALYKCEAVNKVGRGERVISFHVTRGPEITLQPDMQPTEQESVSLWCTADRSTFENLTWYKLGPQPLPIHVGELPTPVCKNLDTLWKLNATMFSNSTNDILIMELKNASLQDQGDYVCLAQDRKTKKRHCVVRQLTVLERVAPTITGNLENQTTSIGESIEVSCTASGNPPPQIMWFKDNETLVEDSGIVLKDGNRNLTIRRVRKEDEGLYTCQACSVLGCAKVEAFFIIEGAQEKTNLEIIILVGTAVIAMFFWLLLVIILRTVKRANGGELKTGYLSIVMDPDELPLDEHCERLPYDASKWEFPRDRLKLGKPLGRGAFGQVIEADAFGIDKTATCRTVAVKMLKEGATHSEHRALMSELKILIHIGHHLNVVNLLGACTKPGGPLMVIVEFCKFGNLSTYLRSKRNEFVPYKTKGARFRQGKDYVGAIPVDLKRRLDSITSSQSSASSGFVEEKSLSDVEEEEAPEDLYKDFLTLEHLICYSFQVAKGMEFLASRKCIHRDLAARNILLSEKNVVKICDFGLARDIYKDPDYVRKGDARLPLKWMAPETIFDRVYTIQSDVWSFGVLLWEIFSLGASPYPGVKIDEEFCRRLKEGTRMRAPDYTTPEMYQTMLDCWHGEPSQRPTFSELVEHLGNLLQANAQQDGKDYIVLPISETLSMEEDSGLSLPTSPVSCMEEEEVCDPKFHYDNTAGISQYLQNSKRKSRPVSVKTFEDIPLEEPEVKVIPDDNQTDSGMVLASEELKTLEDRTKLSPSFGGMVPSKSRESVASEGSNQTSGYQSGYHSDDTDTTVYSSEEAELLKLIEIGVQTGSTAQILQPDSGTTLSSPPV

As to `COc1cc2c(Nc3cc(O)c(C)cc3F)ncnc2cc1OCC1CCN(C)CC1` [compound 49860186], the values for the IC50 on VEGFR2 and in the data set on any gene target were 0.007 µM and 0.025 µM, respectively.

For `COc1cc2c(Nc3ccc(Cl)c(Cl)c3)ncnc2cc1OCC1CN(C)C(C)(C)CO1` (stereo not shown) [compound 57802660], the IC50 on VEGFR2 and in the data set on any gene target was 0.05 µM each time.

In the case of `COc1cc2c(Nc3ccc(Br)cc3F)ncnc2cc1OCCC1CCNCC1` [compound 5329054], the IC50 at VEGFR2 (setting [1]) and in the data set with any gene target (Table 3) was 0.04 µM throughout.

Regarding `COc1cc2c(Nc3ccc(Cl)cc3F)ncnc2cc1OCCCN1CCCC1` [compound 73352657], the IC50 on VEGFR2 (setting [1]) and with any gene target (Table 3) was 0.008 µM throughout.

As to `CCC(=O)N1CCOC(COc2cc3ncnc(Nc4ccc(Cl)c(Cl)c4)c3cc2OC)C1` (stereo not shown) [compound 57802906], the IC50 at VEGFR2 (setting [1]) and in the data set on any gene target (Table 3) was 0.05 µM in each case.

Turning to `COc1cc2c(Nc3ccc(Cl)c(Cl)c3)ncnc2cc1OCC1CN(C(C)=O)CCCO1` (stereo not shown) [compound 57802725], the IC50 at VEGFR2 and with any gene target was 0.05 µM in each case.

As to `COc1cc(C2=C(c3c[nH]c4ccccc34)C(=O)NC2=O)cc(OC)c1OC` [compound 11530963], the IC50 at VEGFR2 is 0.0025 µM; with any gene target, 0.005 µM.

On to `COc1cc2c(Nc3cccc(Cl)c3Cl)ncnc2cc1OCC1CN(C(C)=N)CCCO1` (stereo not shown) [compound 134151034], for which the IC50 on VEGFR2 (setting [1]) and with any gene target (Table 3) was 0.05 µM in each case.

For the compound `COc1cc2c(Nc3ccc(Br)c(Cl)c3)ncnc2cc1OCC1CN(C)CCO1` (stereo not shown) [compound 57802766], the IC50 at VEGFR2 and in the data set with any gene target was 0.05 µM throughout.

`COc1cc2c(Nc3ccc(Cl)cc3F)ncnc2cc1OCCC1CCN(C)CC1` [compound 5329052]: the IC50 on VEGFR2 is 0.055 µM; in the data set with any gene target, 0.07 µM.

As for `CC(C)Oc1cc2c(Nc3ccc(Cl)c(Cl)c3)ncnc2cc1OCC1CN(C)CCO1` (stereo not shown) [compound 57802797], the IC50 at VEGFR2 and in the data set with any gene target was 0.05 µM each time.

Take `COc1cc2c(Nc3c(F)cc(Cl)cc3F)ncnc2cc1OCC1CCN(C)CC1` [compound 5329045]: the IC50 on VEGFR2 was 0.025 µM; with any gene target it was 0.06 µM.

Take `COc1cc2c(Nc3ccc(C)cc3F)ncnc2cc1OCC1CCN(C)CC1` [compound 5329042]: the figures for the IC50 on VEGFR2 and in the data set with any gene target were 0.025 µM and 0.065 µM, respectively.

On to `COc1cc2c(Nc3ccc(Br)c(Cl)c3F)ncnc2cc1OCC1CN(C)CCO1` (stereo not shown) [compound 57802566], for which the IC50 on VEGFR2 (setting [1]) and in the data set on any gene target (Table 3) was 0.05 µM each time.

Take `COc1cc2c(Nc3ccc(F)c(Cl)c3F)ncnc2cc1OC[C@@H]1CN2CCOC[C@H]2CO1` [compound 66838567]: the IC50 at VEGFR2 (setting [1]) and in the data set with any gene target (Table 3) was 0.05 µM in each case.

In the case of `COCCNC(=O)c1cccc2cc(Oc3ccnc4cc(OC)c(C(N)=O)cc34)ccc12` [compound 11224593], the IC50 is 0.022 µM at VEGFR2 and 0.233 µM in the data set on any gene target.

`COc1ccc2c(c1)/C(=C/c1cc3c([nH]1)CCN(C(=O)N1CCN(C)CC1)C3)C(=O)N2` [compound 71714231]: the IC50 on VEGFR2 (setting [1]) and in the data set with any gene target (Table 3) was 0.006 µM each time.

Take `COc1cc2c(Nc3cc(Cl)c(Cl)cc3F)ncnc2cc1OCC1CN(C)C(C)(C)CO1` (stereo not shown) [compound 57802853]: the IC50 at VEGFR2 (setting [1]) and with any gene target (Table 3) was 0.05 µM in each case.

Turning to `CCN1CCCCC1c1nc(COc2cc3ncnc(Nc4ccc(Cl)c(Cl)c4)c3cc2OC)no1` (stereo not shown) [compound 57802919], the IC50 on VEGFR2 (setting [1]) and with any gene target (Table 3) was 0.05 µM in each case.

In the case of `COc1cc(O)c2c(c1)CCC[C@H](O)CC(=O)/C=C\C[C@H](C)OC2=O` [compound 53324451], the IC50 on VEGFR2 is 0.0058 µM; in the data set with any gene target it was 0.00723 µM.

With `COc1cc2c(Nc3ccc(Br)c(Cl)c3Cl)ncnc2cc1OCC1CN(C)C(C)(C)CO1` (stereo not shown) [compound 57802578], the IC50 at VEGFR2 and with any gene target was 0.05 µM each time.

Regarding `CO/N=C(\C)c1ccc2c(c1)c1c3c(c4c(c1n2CC(C)C)CCc1nn(C)cc1-4)C(=O)NC3` [compound 44447890], the IC50 is 0.004 µM on VEGFR2 and 0.008 µM in the data set with any gene target.

On to `COc1cc2c(Nc3ccc(Br)cc3F)ncnc2cc1OC[C@@H]1CCCN(C)C1` [compound 5329056], for which the results for the IC50 on VEGFR2 and in the data set on any gene target were 0.001 µM and 0.06 µM, respectively.

In the case of `COc1cc2c(Nc3ccc(Cl)cc3F)ncnc2cc1OCCN1CCOCC1` [compound 5329019], the IC50 at VEGFR2 is 0.04 µM; in the data set on any gene target, 0.3 µM.

With `COc1cc2c(Nc3ccc(Cl)cc3F)ncnc2cc1OCC1CCNCC1` [compound 73349643], the IC50 is 0.05 µM at VEGFR2 and 0.06 µM in the data set on any gene target.

As to `C[C@@H](Nc1ncnc2[nH]c(-c3ccc(OCCCC(=O)NO)cc3)cc12)c1ccccc1` [compound 24900506], the IC50 at VEGFR2 and in the data set with any gene target was 0.1 µM in each case.

For the compound `COc1cc2c(Nc3ccc(Cl)c(Cl)c3)ncnc2cc1OCCN1C(=O)c2ccccc2C1=O` [compound 57802754], the IC50 on VEGFR2 and in the data set on any gene target was 0.05 µM throughout.

With `COc1cc2c(Nc3cc(Cl)c(Cl)cc3F)ncnc2cc1OC[C@@H]1CN2CCC[C@H]2CO1` [compound 53630919], the IC50 on VEGFR2 (setting [1]) and in the data set with any gene target (Table 3) was 0.05 µM in each case.

As to `COc1cc2c(Nc3ccc(Cl)cc3F)ncnc2cc1OCCN1CCN(C)CC1` [compound 4913175], the IC50 on VEGFR2 is 0.03 µM; in the data set on any gene target, 0.1 µM.

Consider `C[C@@H](Nc1ncnc2[nH]c(-c3ccc(CN4CCN(CCCCCC(=O)NO)CC4)cc3)cc12)c1ccccc1` [compound 24900442], for which the IC50 on VEGFR2 and in the data set with any gene target was 0.1 µM in each case.

`COc1cc2c(Nc3ccc(Cl)c(Cl)c3)ncnc2cc1OC[C@H]1CN2CCC[C@H]2CO1` [compound 66838546]: the IC50 at VEGFR2 (setting [1]) and in the data set with any gene target (Table 3) was 0.05 µM throughout.

As to `CNc1cc2c(cn1)cc(-c1ccc(F)c(NC(=O)Nc3cc(C(C)(C)C)no3)c1)c(=O)n2[C@H]1CCOC1` [compound 122177477], the IC50 at VEGFR2 is 0.00046 µM; with any gene target, 0.001 µM.

`COc1cc(C2=C(c3cn(COC(C)C)c4ccccc34)CNC2=O)cc(OC)c1OC` [compound 24894996]: the IC50 on VEGFR2 was 5.2 µM; with any gene target, 5.3 µM.

As for `C[C@@H](Nc1ncnc2[nH]c(-c3ccc(CN4CCN(CCCCCCC(=O)NO)CC4)cc3)cc12)c1ccccc1` [compound 24900443], the IC50 on VEGFR2 and in the data set with any gene target was 0.1 µM each time.

Turning to `COc1cc2c(Nc3ccc(Cl)c(Cl)c3)ncnc2cc1OC[C@H]1CN2CCC[C@@H]2CO1` [compound 57802880], the IC50 at VEGFR2 (setting [1]) and with any gene target (Table 3) was 0.05 µM each time.

For `COc1cc2c(Nc3ccc(Cl)c(Cl)c3)ncnc2cc1OC[C@@H]1O[C@@H](OC)[C@@H](O)[C@H](O)[C@H]1O` [compound 57802800], the IC50 on VEGFR2 and in the data set on any gene target was 0.05 µM throughout.

`c1cnc(NCc2ccncc2)c(-c2nnc(Nc3ccc4c(c3)OCCO4)o2)c1` [compound 44408215]: the values for the IC50 on VEGFR2 and in the data set on any gene target were 0.17 µM and 29.9 µM, respectively.

For the compound `CCN1CCCOC(COc2cc3ncnc(Nc4ccc(Cl)c(Cl)c4)c3cc2OC)C1` (stereo not shown) [compound 57802623], the IC50 on VEGFR2 (setting [1]) and in the data set with any gene target (Table 3) was 0.05 µM each time.

`O=C(Nc1cccc(-c2cncc3ccccc23)c1)c1ccccc1NCc1ccncc1` [compound 44368815]: the IC50 at VEGFR2 was 0.00116 µM; with any gene target, 0.052 µM.

As to `COc1cc2nccc(Oc3ccc4c(C(=O)NC5CC5)cccc4c3)c2cc1C(N)=O` [compound 11750694], the IC50 at VEGFR2 is 0.00037 µM; in the data set on any gene target it was 0.185 µM.

On to `COc1cc2ncnc(Oc3ccc4c(C(=O)NC5CC5)cccc4c3)c2cc1OC` [compound 24823093], for which the IC50 is 0.00288 µM on VEGFR2 and 0.36 µM with any gene target.

As for `OCCCNc1cncc(-c2cncc(Nc3cccc(Cl)c3)n2)c1` [compound 5330387], the IC50 at VEGFR2 (setting [1]) and with any gene target (Table 3) was 0.005 µM throughout.

`COCCOc1cc2ncnc(Nc3ccc(Cl)cc3F)c2cc1OC` [compound 5329011]: the values for the IC50 at VEGFR2 and in the data set with any gene target were 0.007 µM and 0.04 µM, respectively.

In the case of `Cc1nc2cc(N(C)c3ccnc(Nc4cccc(S(N)(=O)=O)c4)n3)ccc2n1C` [compound 10273854], the IC50 at VEGFR2 was 0.017 µM; with any gene target, 9 µM.

In the case of `C[C@@H](Nc1ncnc2[nH]c(-c3ccc(CNCCCCCC(=O)NO)cc3)cc12)c1ccccc1` [compound 24900643], the IC50 at VEGFR2 and in the data set with any gene target was 0.1 µM each time.

Turning to `COc1cc2c(Nc3ccc(F)c(Cl)c3F)ncnc2cc1OCC1CN(C)CCO1` (stereo not shown) [compound 57802680], the IC50 at VEGFR2 and in the data set on any gene target was 0.05 µM in each case.

In the case of `COc1cc2c(Nc3cc(Cl)c(Cl)cc3F)ncnc2cc1OC[C@@H]1CO[C@H]2[C@@H]1OC[C@@H]2OC` [compound 66954904], the IC50 on VEGFR2 (setting [1]) and with any gene target (Table 3) was 0.05 µM throughout.

For `O=C(Nc1cccc(-c2cn3ccnc3c(NCc3ccncc3)n2)c1)Nc1cccc(C(F)(F)F)c1` [compound 11755812], the IC50 on VEGFR2 is 0.033 µM; in the data set with any gene target, 0.035 µM.

For `COc1cc(C2=C(c3cn(COc4ccccc4)c4ccccc34)CNC2=O)cc(OC)c1OC` [compound 24894997], the IC50 is 1.5 µM at VEGFR2 and 1.7 µM in the data set on any gene target.

For `Cc1ccc(NC(=O)c2cc(C3CC3)[nH]n2)cc1Nc1nc2ccccc2n1-c1cc(N)ncn1` [compound 15949619], the IC50 on VEGFR2 is 0.048 µM; with any gene target, 0.05 µM.

On to `COc1cc2c(Nc3ccc(Cl)c(Cl)c3)ncnc2cc1OCc1cscn1` [compound 10455540], for which the IC50 at VEGFR2 (setting [1]) and with any gene target (Table 3) was 0.05 µM in each case.

As for `COc1cc2nccc(Oc3ccc4c(C(=O)NCC(F)(F)F)cccc4c3)c2cc1OC` [compound 24823250], the IC50 is 0.0038 µM on VEGFR2 and 0.016 µM in the data set on any gene target.

For `CCN1CCOC(COc2cc3ncnc(Nc4ccc(Cl)c(Cl)c4)c3cc2OC)C1` (stereo not shown) [compound 57802737], the IC50 at VEGFR2 and with any gene target was 0.05 µM throughout.
